Measurements from patent US20060099712A1, “Correlation of anti-cancer activity of dyes with redox potentials” (Eastman Kodak Company, priority 2004, published 2006).

Experiment: Electrochemical reduction potential (Er) measurement, SHACV / fast scan CV
Assay type: physicochemical
Conditions: for Er: Table XIX, reduction potential vs. Ag/AgCl, in V (unit assumed)
Text: In the practice of this invention the reduction potential of a given dye may be determined in various ways. If available, the published reduction potential may be employed. Reduction potentials for numerous cyanine and merocyanine dyes are available in the literature. (See J. Lenhard, Journal of Imaging Science, vol. 30 pp. 27-35 (1986).) A large amount of data has been generated on the reduction and oxidation potentials of these dyes from their use in photography and related arts where they are employed, inter alia, as spectral sensitizers.
If a published reduction potential is not available, suitable techniques for measuring reduction potential are available. Accurate electrochemical oxidation and reduction potentials for these organic dyes can be measured by the techniques of fast scan cyclic voltommetry (CV) or second harmonic ac voltommetry (SHACV). SHACV measurements are made as described by Lenhard in the Journal of Imaging Science volume 30, 1986 pp 27-35 using a commercially available (Princeton Applied Research Corp.) potentiostat in conjunction with voltage programmer, a conventional lock-in amplifier, and a low-distortion oscillator. The SHACV method utilizes an ac voltage waveform (of a frequency greater than or equal to 400 hz) that is superimposed on a DC potential ramp. On the other hand, the measurement of the oxidation or reduction potential by the CV method utilizes a (high frequency) triangular voltage waveform. The general procedures for measuring potentials by this method have been described by Wightman in Analytical Chemistry, 1984, vol. 56, pp524 and Journal of Physical Chemistry, 1984, vol. 88, pp3915. The specific application of this technique to the measurement of cyanine dye potentials has been reported by Nomura and Okazaki, Chemistry Letters, 1990, pp2231-2234. Commercial instrumentation especially designed for fast scan (i.e., high frequency) CV is available. It is noteworthy that because of the complicated nature of many of the cyanine dyes, electrochemical reactions, conventional slow scan cyclic voltommetry or polarography methods (as described by R. Large in Photographic Sensitivity, R. Cox, ed., Academic Press, New York, 1973, pp 241-263) provide only approximate values for oxidation and reduction potentials. Errors as large as 0.4 V from the true potential can be obtained by using slow scan CV or electrochemical methods.
The procedure for measuring the oxidation or reduction potential by the SHACV or fast scan CV method utilizes solutions of acetonitrile (or similar nonaqueous solvent) with added tetrabutylammonium tetrafluoroborate TBABF4 at a concentration of 0.1 M and ca. 5×10^−4 M of the cyanine, oxonol, or merocyanine dye. For measurement of the reduction potential the solution must be deaerated with argon prior to examination. The preferred working electrode is a Pt disk (ca. 0.02 cm^2) that is polished with 1 μm diamond paste, rinsed with water, and dried before each experiment. The reference electrode is a NaCl saturated calomel electrode. The cell and reference electrodes are maintained at 22 C. A value of 40 mV is added to the measured potentials to convert the number to that corresponding to an Ag/AgCl reference electrode. If a solvent other than acetonitrile is used then the measured potential must be referenced to a standard organic redox system such as ferrocene and corrected accordingly.
SHACV (Second Harmonic Alternating Current Voltametry) measurements are made as described by Lenhard in the Journal of Imaging Science volume 30, 1986 pp 27-35 using a commercially available (Princeton Applied Research Corp.) potentiostat in conjunction with voltage programmer, a conventional lock-in amplifier, and a low-distortion oscillator. The SHACV method utilizes an ac voltage waveform (of a frequency greater than or equal to 400 hz) that is superimposed on a DC potential ramp. […]

COc1cccc2c1C(=O)c1c(O)c3c(c(O)c1C2=O)C[C@@](O)(C(=O)CO)C[C@@H]3O[C@H]1C[C@H](N)[C@H](O)[C@H](C)O1 [Adriamycin, reference compound]
ER(v), electrochemical reduction potential: −0.68 V

CCN1C(=CC=Cc2sc3cc4ccccc4cc3[n+]2CC)Sc2cc3ccccc3cc21 [AC-2]
ER(v), electrochemical reduction potential: −.920 V

CCN1/C(=C\C=C\C2=[N+](CC)c3ccccc3C2(C)C)C(C)(C)c2ccccc21 [Dye D-103]
Er: −1.000

CCN1/C(=C/C=C/c2sc3cc4ccccc4cc3[n+]2CC)Sc2cc3ccccc3cc21 [Dye D-109]
Er: −0.920

CCN1C(=CC=Cc2sc3cc4ccccc4nc3[n+]2CC)Sc2cc3ccccc3nc21 [Dye D-150]
ER(v), electrochemical reduction potential: −.808 V | Er: −0.808

CCN1/C(=C/C=C/c2sc3cc4ccccc4cc3[n+]2CC)Sc2cc3ccccc3cc21 [Dye D-160]
Er: −0.920

CCN1/C(=C/C=C/c2sc3ccccc3[n+]2CC)Sc2ccccc21.[I-] [Dye D-101]
ER(v), electrochemical reduction potential: −1.06 V | Er: −1.060
